Data as given in patent publication US20160120186A1, “ENHANCEMENT AND CONTROL OF SEED GERMINATION WITH COMPOSITIONS COMPRISING A TRANSITION METAL CATALYST AND AN OXIDANT” (UNIVERSITY OF SASKATCHEWAN, priority 2013, published 2016).

Key:
[1] = Delignification by per-acids (studies by the inventors)
[2] = Microbiocidal properties of per-acids (studies by the inventors)

| Compound | delignification of plant wall material [1] | microbiocidal properties [2] |
| --- | --- | --- |
| CC(=O)O[O-].[Na+] [peracetate] | very efficient delignification | very powerful microbiocidal properties |
| O=COO [performate] | very efficient delignification | very powerful microbiocidal properties |
